The values that follow come from patent US10093630B2, “Pyrazole compounds and methods of making and using same” (ABIDE THERAPEUTICS, INC., priority 2014, dated 2018).

A value given as a limit tells only on which side of the number the result lay.

Experiment in all cases: In vitro competitive activity-based protein profiling (gel-based, FP-Rh or HT-01 probe)
Common to all, as to assay type: biochemical

In one assay the target is T1, ABHD6 (Mus musculus, UniProt Q8R2Y0).
T1 construct: Proteomes (mouse brain membrane fraction or cell lysates); from tissue; host or cells: mouse brain membrane fraction (or cell lysates, not specified)
T1 sequence (Q8R2Y0 1-336): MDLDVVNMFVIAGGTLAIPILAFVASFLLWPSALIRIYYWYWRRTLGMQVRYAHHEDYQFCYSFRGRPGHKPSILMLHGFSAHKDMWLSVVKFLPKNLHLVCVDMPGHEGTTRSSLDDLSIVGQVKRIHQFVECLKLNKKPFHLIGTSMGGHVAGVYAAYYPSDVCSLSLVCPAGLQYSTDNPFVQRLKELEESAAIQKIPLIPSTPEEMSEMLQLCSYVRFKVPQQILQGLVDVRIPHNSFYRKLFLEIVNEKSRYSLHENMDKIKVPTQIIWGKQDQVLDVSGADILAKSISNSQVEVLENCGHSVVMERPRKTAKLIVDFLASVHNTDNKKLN
The conditions noted are these: for inhibition at 1 µM: 1 μM inhibitor, read-out: % Inhibition at 1 μM, C = ABHD6; for inhibition at 10 µM: 10 μM inhibitor, read-out: % Inhibition at 10 μM, C = ABHD6; for IC50: mouse brain membrane fraction or cell lysates, 30 min preincubation at 37° C., read-out: Mouse (IC50 value, nM) ABHD6. The method, boiled down: (§1)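 Mouse brain membrane or cell lysate proteomes (1.0 mg/mL) preincubated with inhibitors 30 min at 37° C, then labelled with FP-Rh or HT-01 for 30 min at 37° C. After SDS-PAGE, activity quantified from fluorescent band intensity.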

For a further assay, the target named is T2, FAAH (Mus musculus, UniProt O08914).
T2 construct: Proteomes (mouse brain membrane fraction or cell lysates); from tissue; host or cells: mouse brain membrane fraction (or cell lysates, not specified)
T2 sequence (O08914 1-579): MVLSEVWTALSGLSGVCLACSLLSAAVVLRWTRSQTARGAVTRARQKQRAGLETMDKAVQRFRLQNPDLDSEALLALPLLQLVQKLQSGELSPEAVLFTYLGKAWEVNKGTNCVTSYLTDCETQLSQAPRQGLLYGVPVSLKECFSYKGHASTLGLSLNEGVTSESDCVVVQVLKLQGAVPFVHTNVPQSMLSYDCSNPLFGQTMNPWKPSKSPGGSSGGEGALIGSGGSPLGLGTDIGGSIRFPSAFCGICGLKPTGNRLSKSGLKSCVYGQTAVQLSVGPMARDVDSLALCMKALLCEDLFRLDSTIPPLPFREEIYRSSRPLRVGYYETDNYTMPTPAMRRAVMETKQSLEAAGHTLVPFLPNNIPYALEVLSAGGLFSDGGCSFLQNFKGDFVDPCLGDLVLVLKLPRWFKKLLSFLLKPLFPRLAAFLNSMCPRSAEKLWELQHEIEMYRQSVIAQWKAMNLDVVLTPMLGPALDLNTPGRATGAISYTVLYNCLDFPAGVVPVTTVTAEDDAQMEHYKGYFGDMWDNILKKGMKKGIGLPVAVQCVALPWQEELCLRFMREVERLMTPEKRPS
The conditions noted are these: for inhibition at 1 µM: 1 μM inhibitor, read-out: % Inhibition at 1 μM, B = FAAH; for inhibition at 10 µM: 10 μM inhibitor, read-out: % Inhibition at 10 μM, B = FAAH; for IC50: mouse brain membrane fraction or cell lysates, 30 min preincubation at 37° C., read-out: Mouse (IC50 value, nM) FAAH. The method, boiled down: as §1

The next assay addresses T3, MAGL (Mus musculus, UniProt O35678).
T3 construct: Proteomes (mouse brain membrane fraction or cell lysates); from tissue; host or cells: mouse brain membrane fraction (or cell lysates, not specified)
T3 sequence (O35678 1-303): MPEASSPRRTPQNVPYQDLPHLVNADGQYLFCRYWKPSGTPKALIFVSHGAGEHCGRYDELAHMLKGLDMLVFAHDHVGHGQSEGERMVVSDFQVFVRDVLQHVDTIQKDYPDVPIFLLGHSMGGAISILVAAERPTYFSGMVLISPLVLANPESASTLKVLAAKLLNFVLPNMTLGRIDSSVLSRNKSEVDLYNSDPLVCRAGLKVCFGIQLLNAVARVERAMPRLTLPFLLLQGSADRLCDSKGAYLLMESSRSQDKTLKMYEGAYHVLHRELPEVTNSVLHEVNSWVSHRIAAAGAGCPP
The conditions noted are these: for inhibition at 1 µM: 1 μM inhibitor; for inhibition at 10 µM: 10 μM inhibitor; for IC50: mouse brain membrane fraction or cell lysates, 30 min preincubation at 37° C., read-out: Mouse (IC50 value, nM) MAGL. Put shortly: as §1

The target in a further assay is T4, PLA2G7 (Mus musculus, UniProt Q60963).
T4 construct: Proteomes (mouse brain membrane fraction or cell lysates); from tissue; host or cells: mouse brain membrane fraction (or cell lysates, not specified)
T4 sequence (Q60963 22-440): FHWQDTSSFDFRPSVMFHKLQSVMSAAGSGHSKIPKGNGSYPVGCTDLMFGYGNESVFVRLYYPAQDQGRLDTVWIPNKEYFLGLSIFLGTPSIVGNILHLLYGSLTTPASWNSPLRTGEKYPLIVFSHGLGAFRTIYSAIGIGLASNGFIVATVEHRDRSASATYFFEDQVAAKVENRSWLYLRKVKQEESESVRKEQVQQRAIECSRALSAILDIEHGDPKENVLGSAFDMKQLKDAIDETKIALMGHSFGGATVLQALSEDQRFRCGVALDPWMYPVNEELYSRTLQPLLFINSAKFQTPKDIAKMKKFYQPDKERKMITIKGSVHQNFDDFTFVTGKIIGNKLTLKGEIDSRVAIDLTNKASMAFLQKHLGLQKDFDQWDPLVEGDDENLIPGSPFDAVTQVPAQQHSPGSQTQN
The settings on record: for inhibition at 1 µM: 1 μM inhibitor, read-out: % Inhibition at 1 μM, D = PLA2G7; for inhibition at 10 µM: 10 μM inhibitor, read-out: % Inhibition at 10 μM, D = PLA2G7; for IC50: mouse brain membrane fraction or cell lysates, 30 min preincubation at 37° C. The method, boiled down:
as §1

The term inhibition denotes the percentage by which the read-out fell short of the control. As for `CN(Cc1cccc(-c2ccncc2)c1)C(=O)n1cc(C(F)(F)F)cn1` [Example 222, N-methyl-N-(3-(pyridin-4-yl)benzyl)-4-(trifluoromethyl)-1H-pyrazole-1-carboxamide], the inhibition at 1 µM at ABHD6 was more than 75%; on FAAH it was more than 75%; on MAGL, more than 75%; on PLA2G7 it was 25 to 75%. Besides, the inhibition at 10 µM at ABHD6 is more than 75%; at FAAH, more than 75%; at MAGL, more than 75%; on PLA2G7, less than 25%.
One may read the IC50 as the midpoint of a concentration-inhibition curve. Regarding `CNC(=O)c1cnn(C(=O)N2CCN(Cc3ccc(Cl)cc3)CC2)c1` [Example 223, 1-(4-(4-Chlorobenzyl)piperazine-1-carbonyl)-N-methyl-1H-pyrazole-4-carboxamide], the inhibition at 1 µM on ABHD6, on FAAH, at MAGL and at PLA2G7 was more than 75% in each case. Besides, the IC50 on ABHD6 was less than 100 nM; at FAAH it was 100 to 1000 nM; on MAGL, 100 to 1000 nM.
With `O=C(N1CCN(Cc2ccccc2Cl)CC1)n1cc(Cl)cn1` [Example 224, (4-Chloro-1H-pyrazol-1-yl)(4-(2-chlorobenzyl)piperazin-1-yl)methanone], the inhibition at 1 µM on ABHD6 is more than 75%; at FAAH, more than 75%; at MAGL, more than 75%; on PLA2G7, less than 25%. Besides, the IC50 on ABHD6 was 100 to 1000 nM; on FAAH, 100 to 1000 nM; at MAGL, less than 100 nM; on PLA2G7, 100 to 1000 nM.
As for `O=C(N1CCN(Cc2cccc(Cl)c2)CC1)n1cc(Cl)cn1` [Example 225, (4-Chloro-1H-pyrazol-1-yl)(4-(3-chlorobenzyl)piperazin-1-yl)methanone], the inhibition at 1 µM on ABHD6 was more than 75%; on FAAH, more than 75%; on MAGL it was more than 75%; on PLA2G7, less than 25%. Besides, the IC50 at ABHD6 was 100 to 1000 nM; at FAAH, less than 100 nM; at MAGL it was less than 100 nM; at PLA2G7, more than 1000 nM.
With `O=C(N1CCN(Cc2ccc(Cl)cc2)CC1)n1cc(Cl)cn1` [Example 226, (4-Chloro-1H-pyrazol-1-yl)(4-(4-chlorobenzyl)piperazin-1-yl)methanone], the inhibition at 1 µM on ABHD6 is more than 75%; on FAAH, more than 75%; at MAGL it was more than 75%; on PLA2G7 it was less than 25%. For the same compound, the IC50 on ABHD6 was less than 100 nM; on FAAH, less than 100 nM; at MAGL it was less than 100 nM; on PLA2G7, more than 1000 nM.
For the compound `O=C(N1CCN(c2ccccc2Cl)CC1)n1cc(C(F)(F)F)cn1` [Example 227, (4-(2-Chlorophenyl)piperazin-1-yl)(4-(trifluoromethyl)-1H-pyrazol-1-yl)methanone], the inhibition at 1 µM at ABHD6, at FAAH, on MAGL and at PLA2G7 was more than 75% each time. For the same compound, the inhibition at 10 µM at ABHD6, on FAAH, on MAGL and on PLA2G7 was more than 75% throughout. For the same compound, the IC50 on ABHD6, on FAAH, at MAGL and at PLA2G7 was less than 100 nM in each case.
For the compound `O=C(N1CCN(c2cccc(Cl)c2)CC1)n1cc(C(F)(F)F)cn1` [Example 228, (4-(3-Chlorophenyl)piperazin-1-yl)(4-(trifluoromethyl)-1H-pyrazol-1-yl)methanone], the inhibition at 1 µM on ABHD6, on FAAH, at MAGL and on PLA2G7 was more than 75% each time. Also, the inhibition at 10 µM at ABHD6, on FAAH, on MAGL and on PLA2G7 was more than 75% in each case.
Regarding `O=C(N1CCN(c2ccc(Cl)cc2)CC1)n1cc(C(F)(F)F)cn1` [Example 229, (4-(4-Chlorophenyl)piperazin-1-yl)(4-(trifluoromethyl)-1H-pyrazol-1-yl)methanone], the inhibition at 1 µM at ABHD6, at FAAH, on MAGL and at PLA2G7 was more than 75% each time. The inhibition at 10 µM at ABHD6, on FAAH, at MAGL and at PLA2G7 was more than 75% in each case.
In the case of `Cc1ccccc1N1CCN(C(=O)n2cc(C(F)(F)F)cn2)CC1` [Example 230, (4-o-Tolylpiperazin-1-yl)(4-(trifluoromethyl)-1H-pyrazol-1-yl)methanone], the inhibition at 1 µM on ABHD6, on FAAH, at MAGL and at PLA2G7 was more than 75% each time. Further, the inhibition at 10 µM at ABHD6, at FAAH, at MAGL and at PLA2G7 was more than 75% in each case.
Take `Cc1cccc(N2CCN(C(=O)n3cc(C(F)(F)F)cn3)CC2)c1` [Example 231, (4-m-Tolylpiperazin-1-yl)(4-(trifluoromethyl)-1H-pyrazol-1-yl)methanone]: the inhibition at 1 µM on ABHD6, on FAAH, on MAGL and on PLA2G7 was more than 75% in each case. In addition, the inhibition at 10 µM on ABHD6, on FAAH, at MAGL and on PLA2G7 was more than 75% each time.
Turning to `Cc1ccc(N2CCN(C(=O)n3cc(C(F)(F)F)cn3)CC2)cc1` [Example 232, (4-p-Tolylpiperazin-1-yl)(4-(trifluoromethyl)-1H-pyrazol-1-yl)methanone], the inhibition at 1 µM at ABHD6, at FAAH, on MAGL and on PLA2G7 was more than 75% throughout. Also, the inhibition at 10 µM on ABHD6, on FAAH, at MAGL and at PLA2G7 was more than 75% in each case.
